Measured values reported in patent US20090012152A1, “Use of Tetramic Acid Derivatives for Controlling Insects from the Genus of the Plane Lice (Sternorrhyncha)” (Bayer CropScience Aktiengesellschaft, priority 2005, published 2009).

Legend:
Type in all cases: in vivo
Macrosiphum euphorbiae = experiment: Example 43: aubergines treated against Macrosiphum euphorbiae; conditions: nymphs on leaves, % a.i.: imidacloprid 0.014, I-9, I-2, I-11 0.0144; for Kill (%) 7 d: 7 d after second treatment; for Kill (%) 14 d: 14 d after second treatment
Procedure: In three replications, plots of a size of 10 m^2 with aubergines of the cultivar “F 100” are treated against Macrosiphum euphorbiae. The application is carried out using a knapsack sprayer operated with pressurized air. Here, the active compounds Example (I-9) (60 SC), Example (I-2) (60 SC) and Example (I-11) (60 SC) and the commercial standard imidacloprid (70 WG) are tested at the stated application rates. Three applications are carried out, at an interval of 7 or 8 days. The application rate is 1000 l of water/ha.
Evaluation is carried out 7 and 14 days after the second treatment by rating the kill of the nymphs on the leaves.

Bemisia argentifolii = experiment: Example 35: aubergines (F 100) treated against Bemisia argentifolii; conditions: 7 d after last of three treatments, nymphs on leaves, % a.i.: imidacloprid 0.014, I-9, I-2, I-11 0.0144
Procedure: In three replications, plots of a size of 10 m^2 with aubergines of the cultivar “F 100” are treated against Bemisia argentifolii. The application is carried out using a knapsack sprayer operated with pressurized air. Here, the active compounds Example (I-9) (60 SC), Example (I-2) (60 SC) and Example (I-11) (60 SC) and the commercial standard imidacloprid (70 WG) are tested at the stated application rates. Three applications are carried out, at an interval or 7 or 8 days. The application rate is 1000 l of water/ha.
Evaluation is carried out 7 days after the last treatment by rating the kill of the nymphs on the leaves.

Bemisia tabaci [1] = experiment: Example 32: bell peppers treated against Bemisia tabaci; conditions: larvae on leaves, % a.i.: imidacloprid 0.02, I-9, I-2, I-11 0.0144; for Kill (%) 7 d: 7 d after second treatment; for Kill (%) 14 d: 14 d after second treatment; for Kill (%) 22 d: 22 d after second treatment
Procedure: In three replications, plots of a size of 10 m^2 with bell peppers of the cultivar “Italiano” are treated against Bemisia tabaci. The application is carried out using a motor-operated knapsack sprayer. Here, the active compounds Example (I-9) (240 SC), Example (I-2) (60 SC) and Example (I-11) (60 SC) and the commercial standard imidacloprid (200 SL) are applied at the stated application rates. Three applications at an interval of 14 or 15 days are carried out, at an application rate of 1000 or 1100 l of water/ha.
Evaluation is carried out 7, 14 and 22 days after the second treatment by rating the kill of the animals (larvae) on the leaves.

Bemisia tabaci [2] = experiment: Example 33: cucumbers treated against Bemisia tabaci; conditions: nymphs on leaves, % a.i.: imidacloprid 0.144, I-4 0.084; for Kill (%) 7 d: 7 d after first of two treatments; for Kill (%) 11 d: 11 d after first of two treatments; for Kill (%) 21 d: 21 d after first of two treatments
Procedure: In four replications, plots of a size of 26 m^2 with cucumbers of the cultivar “Beta alpha” are treated against Bemisia tabaci. The application is carried out using a knapsack sprayer operated with pressurized air. Here, the active compound Example (I-4) (240 SC), in a tank mix with 0.1% a.i. of rapeseed oil methyl ester (500 EW), and the commercial standard imidacloprid (200 SC) are tested at the stated application rates. Two applications are carried out, at an interval of 10 days. The application rate is 1000 l of water/ha.
Evaluation is carried out 7, 11 and 21 days after the first treatment by rating the kill of the animals (nymphs) on leaves.

Phorodon humuli = experiment: Example 44: hop plants treated against hop aphid; conditions: on leaves, % a.i.: imidacloprid 0.0053, I-9 0.0036, I-4 0.0084; for Kill (%) 6 d: 6 d after treatment; for Kill (%) 46 d: 46 d after treatment
Procedure: In two replications, about 4-year-old hop plants of the cultivar “Spalter” are treated against the hop aphid Phorodon humuli. The application is carried out using a knapsack sprayer operated with pressurized air. Here, the active compounds Example (I-9) (240 SC) and Example (I-4) (240 SC), in a tank mix with 0.1% a.i. of rapeseed oil methyl ester (500 EW), and the standard imidacloprid are applied at the stated application rates. The application rate is 1200 l of water/ha.
The first evaluation is carried out 6 days and the last evaluation 46 days after the treatment by rating the kill of the animals on the leaves.

Aphis pomi = experiment: Example 40: apple trees treated against Aphis pomi; conditions: population on shoots, % a.i.: imidacloprid 0.007, I-9 0.0144, I-4 0.0144; for Kill (%) 14 d: 14 d after treatment; for Kill (%) 21 d: 21 d after treatment
Procedure: In three replications, three about 22-year-old apple trees of the cultivar “Golden Delicious” are treated eradicatively against Dysaphis plantaginea and Aphis pomi. The application is carried out using a motor-operated barrow-mounted sprayer. Here, the active compounds Example (I-9) (240 SC) and Example (I-4) (240 SC) in the stated amount are tested against the commercial standard imidacloprid (200 SL), at the stated application rate. The application rate is 1200 l of water/ha.
Evaluation is carried out 14 d and 21 d after the treatment by rating the kill of the population on the shoots.

Trioza erythreae = experiment: Example 8: orange trees treated against Trioza erythreae; conditions: nymphs on branches, rate %: imidacloprid 0.004, I-4 0.0144; for Kill (%) 7 d: 7 d after first of two treatments; for Kill (%) 14 d: 14 d after first of two treatments; for Kill (%) 20 d: 20 d after first of two treatments
Procedure: In three replications, about 2-year-old orange trees are treated against Trioza erythreae. The application is carried out using a knapsack sprayer operated with pressurized air. Here, the active compound Example (I-4) (240 SC) is tested in a tank mix with 0.2% a.i. of rapeseed oil methyl ester (500 EW) against the commercial standard imidacloprid (100 SL) at the stated application rates. The application rate is 540 l of water/ha. Two treatments are carried out, at an interval of 7 days.
Evaluation is carried out 7, 14 and 20 days after the first treatment by rating the kill of the nymphs on the branches.

Paratrioza cockerelli = experiment: Example 7: bell peppers treated against Paratrioza cockerelli; conditions: nymphs on leaves, g a.i./ha: imidacloprid 52.6, I-4 72, dimethoate 561; for Kill (%) 7 d: 7 d after treatment; for Kill (%) 15 d: 15 d after treatment
Procedure: In four replications, plots of a size of about 7 m^2 with bell peppers of the cultivar “Jupiter” are treated against Paratrioza cockerelli. The application is carried out with a knapsack sprayer operated with pressurized air. Here, the active compound Example (I-4) (240 SC) is applied in a tank mix with 0.2% a.i. of rapeseed oil methyl ester (500 EW) and the commercial standards imidacloprid 192 SC and dimethoate (480 EC) are applied in a tank mix with 0.125% Induce at the stated application rates. The application is carried out with an application rate of 467 l of water/ha.
Evaluation is carried out 7 and 15 days after the treatment by rating the kill of the animals (nymphs) on the leaves.

SMILES	Kill (%) 7 d (Macrosiphum euphorbiae) [%]	Kill (%) 14 d (Macrosiphum euphorbiae) [%]	Kill (%) 7 d (Bemisia argentifolii) [%]	Kill (%) 7 d (Bemisia tabaci [1]) [%]	Kill (%) 14 d (Bemisia tabaci [1]) [%]	Kill (%) 22 d (Bemisia tabaci [1]) [%]	Kill (%) 7 d (Bemisia tabaci [2]) [%]	Kill (%) 11 d (Bemisia tabaci [2]) [%]	Kill (%) 21 d (Bemisia tabaci [2]) [%]	Kill (%) 6 d (Phorodon humuli) [%]	Kill (%) 46 d (Phorodon humuli) [%]	Kill (%) 14 d (Aphis pomi) [%]	Kill (%) 21 d (Aphis pomi) [%]	Kill (%) 7 d (Trioza erythreae) [%]	Kill (%) 14 d (Trioza erythreae) [%]	Kill (%) 20 d (Trioza erythreae) [%]	Kill (%) 7 d (Paratrioza cockerelli) [%]	Kill (%) 15 d (Paratrioza cockerelli) [%]
CCOC(=O)OC1=C(c2cc(C)ccc2Br)C(=O)NC12CCC(OC)CC2 (stereo not drawn) [Example (I-2)]	99	91	100	84.7	92.6	85.6												
CCOC(=O)OC1=C(c2cc(C)ccc2C)C(=O)NC12CCC(OC)CC2 (stereo not drawn) [Example (I-4)]							75	87	90	95	98.7	96.9	98.8	97.9	98.9	98.3	90	100
O=[N+]([O-])NC1=NCCN1Cc1ccc(Cl)nc1 [imidacloprid, reference compound]	100	100	100	75.8	67.2	69.4	89	96	96	99	97.6	93.6	92.5	98.4	99.2	98.6	90	0
